Measured values reported in US20230114241A1, “METHODS OF TREATING EPILEPSY USING THE SAME” (Trevena, Inc., priority 2019, published 2023).

Legend:
[1] = target: T1, human sphingosine-1-phosphate receptor 1 (S1P1) (Homo sapiens, UniProt P21453); test: Inhibition of cAMP production (HTRF cAMP HiRange), S1P1 CHO-K1 cells; assay type: cell-based
How it was run: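 CHO-K1 cells co-expressing human S1P1 (C-terminal ProLink tag) and EA-β-arrestin2, plated overnight; after 30 min compound incubation at 37 °C, intracellular cAMP measured by HTRF TR-FRET following 1 h at room temperature. Values normalized to fingolimod.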
Target sequence in this assay (P21453 whole entry): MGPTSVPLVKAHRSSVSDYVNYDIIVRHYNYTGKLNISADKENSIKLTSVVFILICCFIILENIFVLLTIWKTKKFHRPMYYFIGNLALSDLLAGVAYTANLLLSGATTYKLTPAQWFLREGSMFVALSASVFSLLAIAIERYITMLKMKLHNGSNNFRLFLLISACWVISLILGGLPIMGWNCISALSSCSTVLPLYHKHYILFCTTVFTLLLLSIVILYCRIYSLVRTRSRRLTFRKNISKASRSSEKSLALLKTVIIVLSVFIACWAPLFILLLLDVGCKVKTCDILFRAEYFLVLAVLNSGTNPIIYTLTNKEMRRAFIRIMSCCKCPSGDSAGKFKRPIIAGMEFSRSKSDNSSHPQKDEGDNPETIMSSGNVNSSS

[2] = target: T1, human sphingosine-1-phosphate receptor 1 (S1P1); test: β-Arrestin2 recruitment assay (PathHunter), S1P1 CHO-K1 cells; assay type: cell-based
Protocol: Stable clonal Chinese hamster ovary K1 (CHO-K1) cells co-expressing EA-β-arrestin2 and the human sphingosine-1-phosphate receptor 1 (NM_001400, S1P1) with a C-terminal Prolink™ tag were purchased from DiscoverX corporation (Cat #: 93-0207C2).
Cell lines were cultured in AssayComplete™ Media 6 (DiscoverX Corporation, Cat #: 920018GF2) at 37° C. and 5% CO2 in a humidified CO2 and temperature-controlled incubator. To begin assay plating, cells were washed with Dulbecco's phosphate buffered saline (CellGro, Cat #: 21-031-CV) and lifted from the culturing flask by incubation (37° C., 5 min) with CellStripper (Cellgro, Cat #: 25-056-CI). […] Plated cells were incubated overnight at 37° C. and 5% CO2 in a humidified CO2 and temperature-controlled incubator.
Agonist-promoted β-arrestin2 recruitment to the sphingosine-1-phosphate 1 receptor was determined using the β-arrestin PathHunter® Detection kit (DiscoverX Corporation, Cat #: 93-0001). […] In cells that stably express these fusion proteins, stimulation with a cognate agonist results in the interaction of β-arrestin2 and the Prolink™-tagged GPCR. This allows the complementation of the two β-galactosidase fragments and results in the formation of a functional enzyme with β-galactosidase activity. […] Following a 60 minute incubation at 37° C. and 5% CO2 in a humidified CO2 and temperature-controlled incubator, the components of the β-arrestin PathHunter® Detection kit were added as per the manufacturer's instructions. After an hour incubation at room temperature, plates were analyzed by a BMG PheraStar microplate reader.
These values are normalized to fingolimod, a known agonist of the sphingosine-1-phosphate 1 receptor.
Target sequence in this assay (P21453 whole entry): as above
Target sequence in this assay (P32121 whole entry partner): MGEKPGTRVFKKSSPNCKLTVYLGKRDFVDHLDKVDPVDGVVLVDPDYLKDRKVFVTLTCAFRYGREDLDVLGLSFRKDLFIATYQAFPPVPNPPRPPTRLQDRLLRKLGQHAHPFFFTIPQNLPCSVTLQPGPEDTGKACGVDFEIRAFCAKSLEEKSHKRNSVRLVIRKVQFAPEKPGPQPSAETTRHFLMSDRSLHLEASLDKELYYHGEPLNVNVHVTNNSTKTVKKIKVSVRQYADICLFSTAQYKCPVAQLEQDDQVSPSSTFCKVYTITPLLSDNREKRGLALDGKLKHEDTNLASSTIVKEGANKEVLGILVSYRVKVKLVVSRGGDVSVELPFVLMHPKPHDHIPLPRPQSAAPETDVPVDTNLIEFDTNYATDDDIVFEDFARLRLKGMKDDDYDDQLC

[3] = CHO-K1, inhibition of cAMP production, efficacy normalized to maximum efficacy of fingolimod, read-out: hS1P1 CAMP SPAN
[4] = inhibition of cAMP production, potency, read-out: hS1P1 CAMP pEC50 (converted)
[5] = CHO-K1, β-arrestin2 recruitment, efficacy normalized to maximum efficacy of fingolimod, read-out: hS1P1 B-arrestin2 SPAN
[6] = β-arrestin2 recruitment, potency, read-out: hS1P1 B-arrestin2 pEC50 (converted)
[7] = inhibition of cAMP production, S1P1, read-out: hS1P1 CAMP pEC50 (converted)

Row | Emax [1, 3] [%] | EC50 [1, 4] [µM] | Emax [2, 5] [%] | EC50 [2, 6] [µM] | EC50 [1, 7] [µM] | Compound | further results
1 | < 75 | > 0.316 | < 75 | > 10 | – | Fc1cc(-c2noc(-c3ccc4c(c3)nnn4C3CCCC3)n2)ccc1C(F)(F)F [Compound 1, 1-cyclopentyl-5-{3-[3-fluoro-4-(trifluoro-methyl)phenyl]-1,2,4-oxadiazol-5-yl}-1H-1,2,3-benzotriazole] | –
2 | – | – | – | < 10 | – | CCn1nnc2cc(-c3noc(-c4ccccc4Br)n3)ccc21 [Compound 2, 5-(2-bromophenyl)-3-(1-ethyl-1H-benzo[d][1,2,3]triazol-5-yl)-1,2,4-oxadiazole] | –
3 | > 75 | < 0.316 | > 75 | < 10 | – | Cc1ccncc1-c1noc(-c2ccc3nnn(CC(C)C)c3c2)n1 [Compound 3, 1-(2-methylpropyl)-6-[3-(4-methylpyridin-3-yl)-1,2,4-oxadiazol-5-yl]-1H-1,2,3-benzotriazole] | –
4 | < 75 | > 0.316 | < 75 | > 10 | – | CCCn1nnc2cc(-c3nc(-c4ccc(F)cc4)no3)ccc21 [Compound 5, 5-[3-(4-fluorophenyl)-1,2,4-oxadiazol-5-yl]-1-propyl-1H-1,2,3-benzotriazole] | –
5 | > 75 | > 0.316 | > 75 | > 10 | – | c1ccc(-c2noc(-c3ccc4c(c3)nnn4C3CCCC3)n2)cc1 [Compound 7, 1-cyclopentyl-5-(3-phenyl-1,2,4-oxadiazol-5-yl)-1H-1,2,3-benzotriazole] | –
6 | < 75 | > 0.316 | < 75 | > 10 | – | CC(C)n1nnc2cc(-c3nc(-c4ccc(-c5ccccc5)cn4)no3)ccc21 [Compound 9, 5-[3-(5-phenylpyridin-2-yl)-1,2,4-oxadiazol-5-yl]-1-(propan-2-yl)-1H-1,2,3-benzotriazole] | –
7 | – | – | – | – | – | FC(F)(F)Oc1cccc(-c2nc(-c3ccc4c(c3)nnn4C3CCCC3)no2)c1 [Compound 10, 3-(1-cyclopentyl-1H-benzo[d][1,2,3]triazol-5-yl)-5-(3-(trifluoro-methoxy)phenyl)-1,2,4-oxadiazole] | EC50 [1]: > 0.316 µM; Emax ([1]; CHO-K1, read-out: hS1P1 CAMP SPAN): < 75%; EC50 [2]: > 10 µM; Emax ([2]; CHO-K1, read-out: hS1P1 B-arrestin2 SPAN): < 75%
8 | < 75 | > 0.316 | < 75 | > 10 | – | Cc1cccc(-c2noc(-c3ccc4c(c3)nnn4C3CCCCC3)n2)c1 [Compound 11, 1-cyclohexyl-5-[3-(3-methylphenyl)-1,2,4-oxadiazol-5-yl]-1H-1,2,3-benzotriazole] | –
9 | < 75 | > 0.316 | < 75 | > 10 | – | FC(F)(F)c1cccc(-c2nc(-c3ccc4c(c3)nnn4C3CCCC3)no2)c1 [Compound 12, 3-(1-cyclopentyl-1H-benzo[d][1,2,3]triazol-5-yl)-5-(3-(trifluoro-methyl)phenyl)-1,2,4-oxadiazole] | –
10 | < 75 | < 0.316 | < 75 | < 10 | – | Oc1ccc(-c2noc(-c3ccc4c(c3)nnn4C3CCCC3)n2)cc1 [Compound 13, 4-[5-(1-cyclopentyl-1H-1,2,3-benzotriazol-5-yl)-1,2,4-oxadiazol-3-yl]phenol] | –
11 | > 75 | > 0.316 | < 75 | > 10 | – | CC(C)n1nnc2cc(-c3nc(-c4ccc(Oc5ccccc5)cc4)no3)ccc21 [Compound 15, 5-[3-(4-phenoxyphenyl)-1,2,4-oxadiazol-5-yl]-1-(propan-2-yl)-1H-1,2,3-benzotriazole] | –
12 | < 75 | > 0.316 | > 75 | < 10 | – | CSc1ccccc1-c1nc(-c2ccc3c(c2)nnn3C2CCCC2)no1 [Compound 16, 3-(1-cyclopentyl-1H-benzo[d][1,2,3]triazol-5-yl)-5-(2-(methylthio)phenyl)-1,2,4-oxadiazole] | –
13 | > 75 | < 0.316 | > 75 | < 10 | – | CC(C)n1nnc2cc(-c3nc(-c4ccccc4Cl)no3)ccc21 [Compound 17] | –
14 | < 75 | > 0.316 | < 75 | > 10 | – | CC(C)n1nnc2cc(-c3noc(C4CCC4)n3)ccc21 [Compound 18, 5-(5-cyclobutyl-1,2,4-oxadiazol-3-yl)-1-(propan-2-yl)-1H-1,2,3-benzotriazole] | –
15 | > 75 | < 0.316 | > 75 | < 10 | – | CC(C)Oc1ccc(-c2noc(-c3ccc4c(c3)nnn4C(C)C)n2)cc1C(F)(F)F [Compound 20, 3-(4-isopropoxy-3-(trifluoromethyl)phenyl)-5-(1-isopropyl-1H-benzo[d][1,2,3]triazol-5-yl)-1,2,4-oxadiazole] | –
16 | > 75 | > 0.316 | > 75 | > 10 | – | CC(C)n1nnc2cc(-c3nc(-c4ccccc4F)co3)ccc21 [Compound 21, 5-[4-(2-fluorophenyl)-1,3-oxazol-2-yl]-1-(propan-2-yl)-1H-1,2,3-benzotriazole] | –
17 | – | – | – | – | < 0.316 | N#Cc1cc(-c2nnc(-c3ccc4[nH]cnc4c3)o2)ccc1NC(CF)CF [Compound 600, 5-[5-(1H-1,3-benzo-diazol-5-yl)-1,3,4-oxadiazol-2-yl]-2-[(1,3-difluoropropan-2-yl)amino]benzonitrile] | –
18 | – | – | – | – | < 0.316 | COc1ccncc1-c1nc(-c2ccc3c(c2)nnn3C(C)C)no1 [Compound 605, 3-(1-isopropyl-1H-benzo[d][1,2,3]triazol-5-yl)-5-(4-methoxy-pyridin-3-yl)-1,2,4-oxadiazole] | –
19 | – | – | – | – | < 0.316 | COc1cnccc1-c1nc(-c2ccc3c(c2)nnn3C(C)C)no1 [Compound 606, 3-(1-isopropyl-1H-benzo[d][1,2,3]triazol-5-yl)-5-(3-methoxy-pyridin-4-yl)-1,2,4-oxadiazole] | –
20 | – | – | – | – | < 0.316 | COc1ncccc1-c1nc(-c2ccc3c(c2)nnn3C(C)C)no1 [Compound 607, 3-(1-isopropyl-1H-benzo[d][1,2,3]triazol-5-yl)-5-(2-methoxy-pyridin-3-yl)-1,2,4-oxadiazole] | –
21 | – | – | – | – | < 0.316 | Cc1ccsc1-c1nc(-c2ccc3c(c2)nnn3C(C)(C)CO)no1 [Compound 611, 2-methyl-2-(5-(5-(3-methylthiophen-2-yl)-1,2,4-oxadiazol-3-yl)-1H-benzo[d] [1,2,3]triazol-1-yl)propan-1-ol] | –
22 | – | – | – | – | < 0.316 | COc1cccnc1-c1nc(-c2ccc3c(c2)nnn3C(C)C)no1 [Compound 612, 3-(1-isopropyl-1H-benzo[d][1,2,3]triazol-5-yl)-5-(3-methoxy-pyridin-2-yl)-1,2,4-oxadiazole] | –
23 | – | – | – | – | > 0.316 | COc1ccccc1-c1nc(-c2ccc3c(c2)nnn3C(C)(C)CO)no1 [Compound 623, 2-(5-(5-(2-methoxy-phenyl)-1,2,4-oxadiazol-3-yl)-1H-benzo[d][1,2,3]triazol-1-yl)-2-methyl-propan-1-ol] | –
24 | – | – | – | – | > 0.316 | CCc1ccccc1-c1nc(-c2ccc3c(c2)nnn3C(C)(C)CO)no1 [Compound 624, 2-(5-(5-(2-ethyl-phenyl)-1,2,4-oxadiazol-3-yl)-1H-benzo[d][1,2,3]triazol-1-yl)-2-methyl-propan-1-ol] | –
25 | – | – | – | – | > 0.316 | Cc1ccncc1-c1nc(-c2ccc3c(c2)nnn3C(C)(C)CO)no1 [Compound 625, 2-methyl-2-(5-(5-(4-methylpyridin-3-yl)-1,2,4-oxadiazol-3-yl)-1H-benzo[d] [1,2,3]triazol-1-yl)propan-1-ol] | –
26 | – | – | – | – | > 0.316 | COc1cccnc1-c1noc(-c2ccc3c(c2)nnn3C(C)C)n1 [Compound 627, 5-(1-isopropyl-1H-benzo[d][1,2,3]triazol-5-yl)-3-(3-methoxypyridin-2-yl)-1,2,4-oxadiazole] | –
27 | – | – | – | – | > 0.316 | Cc1nccnc1-c1nc(-c2ccc3c(c2)nnn3C(C)(C)CO)no1 [Compound 641, 2-methyl-2-(5-(5-(3-methyl-pyrazin-2-yl)-1,2,4-oxadiazol-3-yl)-1H-benzo[d][1,2,3]triazol-1-yl)propan-1-ol] | –
28 | – | – | – | – | > 0.316 | CC(C)(CO)n1nnc2cc(-c3noc(-c4cccnc4F)n3)ccc21 [Compound 643, 2-(5-(5-(2-fluoro-pyridin-3-yl)-1,2,4-oxadiazol-3-yl)-1H-benzo[d][1,2,3]triazol-1-yl)-2-methylpropan-1-ol] | –
29 | – | – | – | – | > 0.316 | CC(C)(CO)n1nnc2cc(-c3noc(-c4cnccc4C(F)(F)F)n3)ccc21 [Compound 644, 2-methyl-2-(5-(5-(4-(trifluoro-methyl)pyridin-3-yl)-1,2,4-oxadiazol-3-yl)-1H-benzo[d][1,2,3]triazol-1-yl)propan-1-ol] | –
